Measurements from ChEMBL document CHEMBL1649133, “In vitro comparison of the efficacies of natamycin and silver nitrate against ocular fungi” (2009).
Values after ≈ are worked out from the molar mass of the structure shown.

Experiments:
Type in all cases: functional
Fusarium solani = assay: Antifungal activity against 0.4x10'4 to 5x10^4 CFU/ml Fusarium solani after 48 hrs by CLSI M38-A broth microdilution method
Fusarium verticillioides = assay: Antifungal activity against 0.4x10'4 to 5x10^4 CFU/ml Fusarium moniliforme after 48 hrs by CLSI M38-A broth microdilution method
Fusarium avenaceum = assay: Antifungal activity against 0.4x10'4 to 5x10^4 CFU/ml Fusarium avenaceum after 48 hrs by CLSI M38-A broth microdilution method
Fusarium oxysporum = assay: Antifungal activity against 0.4x10'4 to 5x10^4 CFU/ml Fusarium oxysporum after 48 hrs by CLSI M38-A broth microdilution method
Fusarium poae = assay: Antifungal activity against 0.4x10'4 to 5x10^4 CFU/ml Fusarium poae after 48 hrs by CLSI M38-A broth microdilution method
Fusarium sp. = assay: Antifungal activity against 0.4x10'4 to 5x10^4 CFU/ml Fusarium sp. after 48 hrs by CLSI M38-A broth microdilution method
Aspergillus flavus = assay: Antifungal activity against 0.4x10'4 to 5x10^4 CFU/ml Aspergillus flavus after 48 hrs by CLSI M38-A broth microdilution method
Aspergillus fumigatus = assay: Antifungal activity against 0.4x10'4 to 5x10^4 CFU/ml Aspergillus fumigatus after 48 hrs by CLSI M38-A broth microdilution method
Aspergillus oryzae = assay: Antifungal activity against 0.4x10'4 to 5x10^4 CFU/ml Aspergillus oryzae after 48 hrs by CLSI M38-A broth microdilution method
Aspergillus versicolor = assay: Antifungal activity against 0.4x10'4 to 5x10^4 CFU/ml Aspergillus versicolor after 48 hrs by CLSI M38-A broth microdilution method
Aspergillus niger = assay: Antifungal activity against 0.4x10'4 to 5x10^4 CFU/ml Aspergillus niger after 48 hrs by CLSI M38-A broth microdilution method
Aspergillus sp. = assay: Antifungal activity against 0.4x10'4 to 5x10^4 CFU/ml Aspergillus sp. after 48 hrs by CLSI M38-A broth microdilution method

MIC (Fusarium solani): 4 µg/mL (≈ 6.01 µM)
MIC50 (Fusarium solani): 4 µg/mL (≈ 6.01 µM)
MIC90 (Fusarium solani): 8 µg/mL (≈ 12 µM)
MIC (Fusarium verticillioides): 4 µg/mL (≈ 6.01 µM)
MIC50 (Fusarium verticillioides): 4 µg/mL (≈ 6.01 µM)
MIC90 (Fusarium verticillioides): 8 µg/mL (≈ 12 µM)
MIC50 (Fusarium avenaceum): 8 µg/mL (≈ 12 µM)
MIC90 (Fusarium avenaceum): 8 µg/mL (≈ 12 µM)
MIC (Fusarium oxysporum): 4 µg/mL (≈ 6.01 µM)
MIC (Fusarium poae): 4 µg/mL (≈ 6.01 µM)
MIC (Fusarium sp.): 4 µg/mL (≈ 6.01 µM)
MIC50 (Fusarium sp.): 4 µg/mL (≈ 6.01 µM)
MIC90 (Fusarium sp.): 8 µg/mL (≈ 12 µM)
MIC50 (Aspergillus flavus): 32 µg/mL (≈ 48.1 µM)
MIC90 (Aspergillus flavus): 32 µg/mL (≈ 48.1 µM)
MIC (Aspergillus fumigatus): 4 µg/mL (≈ 6.01 µM)
MIC50 (Aspergillus fumigatus): 4 µg/mL (≈ 6.01 µM)
MIC90 (Aspergillus fumigatus): 4 µg/mL (≈ 6.01 µM)
MIC50 (Aspergillus oryzae): 32 µg/mL (≈ 48.1 µM)
MIC90 (Aspergillus oryzae): 32 µg/mL (≈ 48.1 µM)
MIC50 (Aspergillus versicolor): 8 µg/mL (≈ 12 µM)
MIC90 (Aspergillus versicolor): 32 µg/mL (≈ 48.1 µM)
MIC (Aspergillus niger): 0.25 µg/mL (≈ 0.376 µM)
MIC50 (Aspergillus sp.): 32 µg/mL (≈ 48.1 µM)
MIC90 (Aspergillus sp.): 32 µg/mL (≈ 48.1 µM)
SMILES: C[C@@H]1C/C=C/C=C/C=C/C=C/[C@H](O[C@@H]2O[C@H](C)[C@@H](O)[C@H](N)[C@@H]2O)C[C@@H]2O[C@](O)(C[C@@H](O)C[C@H]3O[C@@H]3/C=C/C(=O)O1)C[C@H](O)[C@H]2C(=O)O [NATAMYCIN]
